We go through 19 compounds from patent US9062033B2, “Chemical compounds” (Rottapharm Biotech S.r.l., priority 2011, dated 2015).

Test [1] deals with T1, human OX1 receptors (Homo sapiens, UniProt O43613).
T1 construct: expressed in transfected cells; host or cells: CHO cells
T1 sequence (O43613 1-425): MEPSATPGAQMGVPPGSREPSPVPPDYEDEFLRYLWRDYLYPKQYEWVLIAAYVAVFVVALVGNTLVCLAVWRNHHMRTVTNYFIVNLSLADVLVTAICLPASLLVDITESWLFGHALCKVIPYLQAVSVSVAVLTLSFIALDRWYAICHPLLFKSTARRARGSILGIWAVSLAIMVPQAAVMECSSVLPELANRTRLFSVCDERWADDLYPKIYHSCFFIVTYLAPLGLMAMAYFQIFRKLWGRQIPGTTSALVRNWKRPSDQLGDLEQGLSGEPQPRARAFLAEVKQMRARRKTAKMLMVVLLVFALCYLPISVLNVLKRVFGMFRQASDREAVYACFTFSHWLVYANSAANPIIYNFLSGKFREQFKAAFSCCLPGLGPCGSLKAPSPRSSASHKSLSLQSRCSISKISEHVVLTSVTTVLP
The test is described as follows: Antagonistic activity against human OX1 receptor, [Ca2+]i fluorimetry (Fluo-4NW) in transfected CHO cells activated with orexin-A. The note with it: CHO cells transfected with human recombinant OX1; orexin-A 3 nM; pKb = co-logarithm of apparent dissociation constant, modified Cheng Prusoff. The format is cell-based. The protocol: (§1) In a typical experiment, the antagonistic activity against human OX1 and OX2 receptors is determined by using CHO e HEK-293 cells transfected with human recombinant OX1 and OX2 receptors respectively, seeded at density of 2 and 3×10^4 cells/well respectively in a 96 fluorimetry well plate. Thus the plate was loaded with the calcium dye (Fluo-4NW/probenecid in HBSS, Hepes 20 mM, pH 7.4; Invitrogen) at 37° C. for 60 min. Afterward the temperature was equilibrated at 22° C. for 15 min and the [Ca2+]i measured directly on the plate by using a fluorescent plate reader (CellLux Perkin Elmer).
(§2) Invention compounds were dissolved in DMSO, diluted in HBSS (DMSO, 0.3% final) and added to the wells. After 5 min CHO cells were activated with orexin-A, 3 nM while HEK-293 cells were activated with orexin-B, 10 nM.
(§3) The compounds, dissolved in DMSO and diluted in the medium (DMSO, 0.3% final), have been analysed in the 1 nM-1 μM concentration range (every concentration in duplicate). The antagonistic activity has been expressed as pKb (co-logarithm of the apparent dissociation constant calculated by using the modified Cheng Prusoff equation).
(§4) The results are expressed as percent of control specific […] response ((measured specific response/control specific agonist response)×100) obtained in the presence of the test compounds.
(§5) The IC50 values (concentration causing a half-maximal inhibition of the control specific agonist response) were determinated by non-linear regression analysis of the concentration curves generated with mean replicate values using hill equation curve fitting. The IC50 values are obtained by the arithmetical mean of at least two experiments. Compounds of the following example tested according to this example gave pKbs as follows: […]

Test [2] deals with T2, human OX2 receptors (Homo sapiens, UniProt O43614).
T2 construct: expressed in transfected cells; host or cells: HEK-293 cells
T2 sequence (O43614 1-444): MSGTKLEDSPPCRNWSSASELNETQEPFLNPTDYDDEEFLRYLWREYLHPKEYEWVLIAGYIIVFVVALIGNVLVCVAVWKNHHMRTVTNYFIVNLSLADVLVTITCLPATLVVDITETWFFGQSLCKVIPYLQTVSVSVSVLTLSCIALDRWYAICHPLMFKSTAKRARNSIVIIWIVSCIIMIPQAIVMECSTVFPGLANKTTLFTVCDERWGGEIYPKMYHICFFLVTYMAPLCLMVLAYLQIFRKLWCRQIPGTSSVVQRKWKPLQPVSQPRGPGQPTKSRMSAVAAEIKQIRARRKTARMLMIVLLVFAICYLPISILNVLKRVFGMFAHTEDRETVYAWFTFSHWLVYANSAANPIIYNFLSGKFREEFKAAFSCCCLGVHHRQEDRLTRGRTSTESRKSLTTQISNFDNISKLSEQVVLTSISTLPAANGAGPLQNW
The test is described as follows: Antagonistic activity against human OX2 receptor, [Ca2+]i fluorimetry (Fluo-4NW) in transfected HEK-293 cells activated with orexin-B. It counts as cell-based. The following applies: HEK-293 cells transfected with human recombinant OX2; orexin-B 10 nM; pKb = co-logarithm of apparent dissociation constant, modified Cheng Prusoff. On the procedure: as §1, §2, §3, §4, §5

`Cc1ccc(OCc2cc(F)cc(F)c2)c(C(=O)N2CC3(CC3)C[C@H]2CNc2ccc(C(F)(F)F)cn2)n1` [Compound 3o, (S)-(3-((3,5-difluorobenzyl)oxy)-6-methylpyridin-2-yl)(6-(((5-(trifluoromethyl)pyridin-2-yl)amino)methyl)-5-azaspiro[2.4]heptan-5-yl)methanone]: the Kb in test [1] was 6.31 nM; in test [2] it was 5.01 nM.
On to `Cc1nc(C(=O)N2CC3(CC3)C[C@H]2CNc2ncc(Cl)cn2)c(-c2ccccc2)s1` [Compound 2g, (S)-(6-(((5-chloropyrimidin-2-yl)amino)methyl)-5-azaspiro[2.4]heptan-5-yl)(2-methyl-5-phenylthiazol-4-yl)methanone], for which the Kb in test [1] and in test [2] was 158 nM throughout.
For the compound `O=C(c1cccc2c1OC(F)(F)O2)N1CC2(CC2)C[C@H]1CNc1ccc(C(F)(F)F)cn1` [Compound 1b, (S)-(2,2-difluorobenzo[d][1,3]dioxol-4-yl)(6-(((5-(trifluoromethyl)pyridin-2-yl)amino)methyl)-5-azaspiro[2.4]heptan-5-yl)methanone], the Kb in test [1] is 79.4 nM; in test [2], 63.1 nM.
Taken in the same sequence, the figures for `Cc1cc(C)nc(NC[C@@H]2CC3(CC3)CN2C(=O)c2nc(C)sc2-c2ccccc2)n1` [Compound 2f, (S)-(6-(((4,6-dimethylpyrimidin-2-yl)amino)methyl)-5-azaspiro[2.4]heptan-5-yl)(2-methyl-5-phenylthiazol-4-yl)methanone] were 31.6 nM and 2.51 nM.
With `Cc1nc(C(=O)N2CC3(CC3)C[C@H]2CNc2cc(C(F)(F)F)ccn2)c(-c2ccccc2)s1` [Compound 2j, (S)-(2-methyl-5-phenylthiazol-4-yl)(6-(((4-(trifluoromethyl)pyridin-2-yl)amino)methyl)-5-azaspiro[2.4]heptan-5-yl)methanone], the Kb was 6.31 nM in test [1] and 3.16 nM in test [2].
Consider `Cc1cc(C(F)(F)F)cc(NC[C@@H]2CC3(CC3)CN2C(=O)c2cc(F)ccc2-c2ncccn2)n1` [Compound 1j, (S)-(5-fluoro-2-(pyrimidin-2-yl)phenyl)(6-(((6-methyl-4-(trifluoromethyl)pyridin-2-yl)amino)methyl)-5-azaspiro[2.4]heptan-5-yl)methanone], for which the Kb was 20 nM in test [1] and 6.31 nM in test [2].
On to `Cc1ccc(-c2ncccn2)c(C(=O)N2CC3(CC3)C[C@H]2CNc2cnc(C(F)(F)F)cn2)n1` [Compound 3h, (S)-(6-methyl-3-(pyrimidin-2-yl)pyridin-2-yl)(6-(((5-(trifluoromethyl)pyrazin-2-yl)amino)methyl)-5-azaspiro[2.4]heptan-5-yl)methanone], for which the Kb in test [1] was 6.31 nM; in test [2], 39.8 nM.
Turning to `O=C(c1c(F)cccc1-c1ncccn1)N1CC2(CC2)C[C@H]1CNc1cc(C(F)(F)F)ccn1` [Compound 1h, (S)-(2-fluoro-6-(pyrimidin-2-yl)phenyl)(6-(((4-(trifluoromethyl)pyridin-2-yl)amino)methyl)-5-azaspiro[2.4]heptan-5-yl)methanone], the antagonist equilibrium constant (Kb) is 39.8 nM in test [1] and 12.6 nM in test [2].
For `Cc1ccc(-c2ncccn2)c(C(=O)N2CC3(CC3)C[C@H]2CNc2ncc(C(F)(F)F)cn2)c1` [Compound 1s, (S)-(5-methyl-2-(pyrimidin-2-yl)phenyl)(6-(((5-(trifluoromethyl)pyrimidin-2-yl)amino)methyl)-5-azaspiro[2.4]heptan-5-yl)methanone] the same measures were 25.1 nM and 100 nM.
Regarding `Cc1ccc(-c2ncccn2)c(C(=O)N2CC3(CC3)C[C@H]2CNc2cc(C(F)(F)F)c(Cl)cn2)c1` [Compound 1r, (S)-(6-(((5-chloro-4-(trifluoromethyl)pyridin-2-yl)amino)methyl)-5-azaspiro[2.4]heptan-5-yl)(5-methyl-2-(pyrimidin-2-yl)phenyl)methanone], the results for the Kb in test [1] and in test [2] were 6.31 nM and 10 nM, respectively.
For `Cc1ccc(-c2ncccn2)c(C(=O)N2CC3(CC3)C[C@H]2CNc2nccc3ncccc23)n1` [Compound 3p, (S)-(6-(((1,6-naphthyridin-5-yl)amino)methyl)-5-azaspiro[2.4]heptan-5-yl)(6-methyl-3-(pyrimidin-2-yl)pyridin-2-yl)methanone] the same measures were 126 nM and 25.1 nM.
Regarding `Cc1ccc(-n2ccc(C)n2)c(C(=O)N2CC3(CC3)C[C@H]2CNc2ccc(C(F)(F)F)cn2)n1` [Compound 3j, (S)-(6-methyl-3-(3-methyl-1H-pyrazol-1-yl)pyridin-2-yl)(6-(((5-(trifluoromethyl)pyridin-2-yl)amino)-methyl)-5-azaspiro[2.4]heptan-5-yl)methanone], the Kb in test [1] was 1.26 nM; in test [2], 15.8 nM.
On to `O=C(c1cc(Cl)ccc1-c1ncccn1)N1CC2(CC2)C[C@H]1CNc1ccc(C(F)(F)F)cn1` [Compound 1a, (S)-(5-chloro-2-(pyrimidin-2-yl)phenyl)(6-(((5-(trifluoromethyl)pyridin-2-yl)amino)methyl)-5-azaspiro[2.4]heptan-5-yl)methanone], for which the figures for the Kb in test [1] and in test [2] were 7.94 nM and 63.1 nM, respectively.
As to `Cc1cccc(NC[C@@H]2CC3(CC3)CN2C(=O)c2nc(C)sc2-c2ccccc2)n1` [Compound 2c, (S)-(2-methyl-5-phenylthiazol-4-yl)(6-(((6-methylpyridin-2-yl)amino)methyl)-5-azaspiro[2.4]heptan-5-yl)methanone], the values for the Kb in test [1] and in test [2] were 50.1 nM and 25.1 nM, respectively.
`Cc1cc(C(F)(F)F)cc(NC[C@@H]2CC3(CC3)CN2C(=O)c2nc(C)sc2-c2ccccc2)n1` [Compound 2k, (S)-(6-(((6-methyl-4-(trifluoromethyl)pyridin-2-yl)amino)methyl)-5-azaspiro[2.4]heptan-5-yl)(2-methyl-5-phenylthiazol-4-yl)methanone]: the results for the Kb in test [1] and in test [2] were 15.8 nM and 2.51 nM, respectively.
Regarding `Cc1nc(C(=O)N2CC3(CC3)C[C@H]2CNc2ccc(Cl)cn2)c(-c2ccccc2)s1` [Compound 2a, (S)-(6-(((5-chloropyridin-2-yl)amino)methyl)-5-azaspiro[2.4]heptan-5-yl)(2-methyl-5-phenylthiazol-4-yl)methanone], the Kb in test [1] is 5.01 nM; in test [2], 79.4 nM.
For `Cc1ccc(-c2ncccn2)c(C(=O)N2CC3(CC3)C[C@H]2CNc2ncc(C(F)(F)F)cc2F)c1` [Compound 1l, (S)-(6-(((3-fluoro-5-(trifluoromethyl)pyridin-2-yl)amino)methyl)-5-azaspiro[2.4]heptan-5-yl)(5-methyl-2-(pyrimidin-2-yl)phenyl)methanone] the same measures were 5.01 nM and 25.1 nM.
On to `Cc1ccc(-c2nccs2)c(C(=O)N2CC3(CC3)C[C@H]2CNc2ccc(C(F)(F)F)cn2)n1` [Compound 3q, (S)-(6-methyl-3-(thiazol-2-yl)pyridin-2-yl)(6-(((5-(trifluoromethyl)pyridin-2-yl)amino)methyl)-5-azaspiro[2.4]heptan-5-yl)methanone], for which the Kb in test [1] is 2.51 nM; in test [2] it was 10 nM.
As for `Cc1ccc(-c2ncccn2)c(C(=O)N2CC3(CC3)C[C@H]2CNc2ncc(C(F)(F)F)cc2Cl)n1` [Compound 3g, (S)-(6-(((3-chloro-5-(trifluoromethyl)pyridin-2-yl)amino)methyl)-5-azaspiro[2.4]heptan-5-yl)(6-methyl-3-(pyrimidin-2-yl)pyridin-2-yl)methanone], the Kb is 5.01 nM in test [1] and 10 nM in test [2].

Broadly, the Kb is the affinity of an antagonist, worked out from how it opposes an agonist.
